Key:
HiBit-BRM fusion protein = biological target: T1, HiBit-BRM fusion protein (Homo sapiens, UniProt P51531); experiment: HiBiT-BRM cell-based degradation assay (Nano-Glo HiBiT Lytic Detection, 24 h); conditions: HeLa cell line expressing HiBiT-BRM; for DC50: read-out: BRM HiBit Degradation IC50
T1 construct: expressed in transfected cells
In short: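 HeLa cells stably expressing HiBiT-BRM were treated for 24 h with compounds (10-point 3-fold dilutions, 30 μM final top dose, in duplicate). HiBiT was detected by lytic LgBiT complementation luminescence. % degradation was normalized to DMSO (high control) and 2 μM of a reference BRM/BRG1 degrader (low control).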

[1] = biological target: T2, HiBit-BRG1 fusion protein (Homo sapiens, UniProt P51532); experiment: HiBiT-BRG1 cell-based degradation assay (Nano-Glo HiBiT Lytic Detection, 24 h); conditions: HeLa cell line expressing HiBit-BRG1 and LgBit; for Dmax: read-out: BRG1 HiBit Degradation Maximum (%); for DC50: read-out: BRMG1 HiBit Degradation IC50
T2 construct: expressed in transfected cells
In short: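 Stable HeLa line co-expressing HiBit-BRG1 and LgBit, 5000 cells/well, treated 24 h in a tissue culture incubator. Lysed with Nano-Glo HiBiT lytic reagent, luminescence read. % degradation normalized to DMSO (high control) and 2 μM reference BRM/BRG1 degrader (low control).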

T2 sequence (P51532 whole entry, the tested form may be a part): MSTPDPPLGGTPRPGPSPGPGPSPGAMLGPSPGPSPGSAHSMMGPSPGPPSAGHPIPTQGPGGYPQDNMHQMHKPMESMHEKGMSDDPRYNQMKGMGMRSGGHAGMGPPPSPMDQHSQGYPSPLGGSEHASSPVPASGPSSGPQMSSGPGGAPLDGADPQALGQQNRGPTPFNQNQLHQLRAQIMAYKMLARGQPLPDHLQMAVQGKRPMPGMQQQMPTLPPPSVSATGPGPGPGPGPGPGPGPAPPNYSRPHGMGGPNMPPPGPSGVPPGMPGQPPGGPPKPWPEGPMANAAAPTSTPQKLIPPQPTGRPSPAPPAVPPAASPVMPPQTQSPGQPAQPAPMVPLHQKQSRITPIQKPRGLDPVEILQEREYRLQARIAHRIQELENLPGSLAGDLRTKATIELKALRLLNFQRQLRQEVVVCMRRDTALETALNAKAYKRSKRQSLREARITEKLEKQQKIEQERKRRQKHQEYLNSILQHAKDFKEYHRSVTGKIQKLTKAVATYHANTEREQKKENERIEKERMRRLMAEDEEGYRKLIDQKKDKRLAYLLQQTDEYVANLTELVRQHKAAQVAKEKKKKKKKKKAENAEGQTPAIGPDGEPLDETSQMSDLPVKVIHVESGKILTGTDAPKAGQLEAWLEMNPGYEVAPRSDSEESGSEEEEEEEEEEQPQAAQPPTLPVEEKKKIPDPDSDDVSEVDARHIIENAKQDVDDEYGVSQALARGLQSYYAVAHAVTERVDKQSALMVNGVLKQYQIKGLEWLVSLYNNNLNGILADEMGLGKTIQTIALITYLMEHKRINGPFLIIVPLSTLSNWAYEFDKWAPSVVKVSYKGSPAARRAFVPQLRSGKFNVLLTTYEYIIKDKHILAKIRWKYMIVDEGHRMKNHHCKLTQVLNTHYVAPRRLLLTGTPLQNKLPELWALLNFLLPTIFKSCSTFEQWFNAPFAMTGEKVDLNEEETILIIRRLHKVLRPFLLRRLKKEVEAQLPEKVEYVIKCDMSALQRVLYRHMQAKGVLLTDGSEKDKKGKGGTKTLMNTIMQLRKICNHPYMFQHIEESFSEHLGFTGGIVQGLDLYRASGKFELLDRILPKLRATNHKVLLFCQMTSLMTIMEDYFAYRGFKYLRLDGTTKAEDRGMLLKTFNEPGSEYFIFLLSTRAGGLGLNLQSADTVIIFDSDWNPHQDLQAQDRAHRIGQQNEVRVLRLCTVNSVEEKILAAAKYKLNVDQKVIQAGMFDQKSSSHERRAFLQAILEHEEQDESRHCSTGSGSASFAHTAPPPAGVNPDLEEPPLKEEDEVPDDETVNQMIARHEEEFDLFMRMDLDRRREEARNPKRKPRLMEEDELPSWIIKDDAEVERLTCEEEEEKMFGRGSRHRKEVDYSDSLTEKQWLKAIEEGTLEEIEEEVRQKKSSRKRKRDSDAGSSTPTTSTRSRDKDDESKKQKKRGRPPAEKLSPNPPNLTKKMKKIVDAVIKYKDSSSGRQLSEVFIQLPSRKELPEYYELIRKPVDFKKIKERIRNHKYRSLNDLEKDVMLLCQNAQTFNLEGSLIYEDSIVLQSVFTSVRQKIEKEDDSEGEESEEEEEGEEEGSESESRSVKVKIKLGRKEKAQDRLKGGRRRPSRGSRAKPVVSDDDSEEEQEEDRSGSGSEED
T1 sequence (P51531 whole entry, the tested form may be a part): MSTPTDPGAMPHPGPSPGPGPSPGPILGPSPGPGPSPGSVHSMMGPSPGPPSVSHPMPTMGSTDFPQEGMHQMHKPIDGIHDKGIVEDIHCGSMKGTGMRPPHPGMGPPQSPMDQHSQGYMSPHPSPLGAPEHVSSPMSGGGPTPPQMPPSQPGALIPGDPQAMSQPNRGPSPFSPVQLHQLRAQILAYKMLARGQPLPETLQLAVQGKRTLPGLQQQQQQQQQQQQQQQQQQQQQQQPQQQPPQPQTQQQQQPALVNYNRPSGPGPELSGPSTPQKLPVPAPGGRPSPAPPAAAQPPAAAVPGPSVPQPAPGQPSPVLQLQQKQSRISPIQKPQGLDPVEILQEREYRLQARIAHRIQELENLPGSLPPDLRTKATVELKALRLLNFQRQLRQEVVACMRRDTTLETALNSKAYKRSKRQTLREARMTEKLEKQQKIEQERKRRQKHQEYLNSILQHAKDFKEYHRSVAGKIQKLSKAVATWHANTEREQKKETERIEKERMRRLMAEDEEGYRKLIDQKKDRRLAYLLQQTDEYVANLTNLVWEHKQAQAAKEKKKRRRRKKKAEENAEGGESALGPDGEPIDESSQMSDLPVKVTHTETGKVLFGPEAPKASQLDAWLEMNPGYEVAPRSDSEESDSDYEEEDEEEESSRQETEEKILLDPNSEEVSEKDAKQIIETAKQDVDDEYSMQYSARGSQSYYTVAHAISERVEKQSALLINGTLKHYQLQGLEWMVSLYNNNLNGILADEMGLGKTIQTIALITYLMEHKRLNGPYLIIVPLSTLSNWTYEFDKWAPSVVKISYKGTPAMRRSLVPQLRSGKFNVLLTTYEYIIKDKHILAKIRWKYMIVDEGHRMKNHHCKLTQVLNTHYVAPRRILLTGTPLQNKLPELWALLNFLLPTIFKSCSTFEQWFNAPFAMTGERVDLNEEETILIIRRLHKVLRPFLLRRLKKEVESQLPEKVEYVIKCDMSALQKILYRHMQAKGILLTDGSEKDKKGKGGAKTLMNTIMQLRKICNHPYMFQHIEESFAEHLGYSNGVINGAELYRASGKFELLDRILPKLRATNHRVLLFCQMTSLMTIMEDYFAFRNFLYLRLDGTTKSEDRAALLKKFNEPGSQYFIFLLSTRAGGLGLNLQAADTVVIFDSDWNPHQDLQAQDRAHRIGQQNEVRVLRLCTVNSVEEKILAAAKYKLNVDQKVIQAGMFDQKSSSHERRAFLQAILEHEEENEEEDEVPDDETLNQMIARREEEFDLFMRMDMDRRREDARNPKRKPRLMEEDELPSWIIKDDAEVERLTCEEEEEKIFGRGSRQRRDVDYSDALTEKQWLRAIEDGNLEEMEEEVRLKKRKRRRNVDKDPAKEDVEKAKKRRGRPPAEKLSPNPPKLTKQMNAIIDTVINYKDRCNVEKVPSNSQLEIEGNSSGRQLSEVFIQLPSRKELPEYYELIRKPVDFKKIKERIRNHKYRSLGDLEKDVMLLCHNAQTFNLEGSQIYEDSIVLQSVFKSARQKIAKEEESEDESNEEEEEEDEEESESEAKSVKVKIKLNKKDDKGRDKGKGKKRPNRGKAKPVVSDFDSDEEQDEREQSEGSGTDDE

DC50 (HiBit-BRM fusion protein)	Dmax [1]	DC50 [1]	Structure (SMILES)	BRM HiBit Degradation Maximum (%) (HiBit-BRM fusion protein)
> 10 nM	< 50%		Cc1ncsc1-c1ccc([C@H](C)NC(=O)[C@@H]2C[C@@H](O)CN2C(=O)[C@@H](c2cc(OCCN3CC[C@H](c4cc5cc(-c6ccccc6O)nnc5[nH]4)C3)no2)C(C)C)cc1 (racemic) [Compound 280, (2S,4R)-4-hydroxy-1-((R)-2-(3-(2-((S)-3-(3-(2-hydroxyphenyl)-7H-pyrrolo[2,3-c]pyridazin-6-yl)pyrrolidin-1-yl)ethoxy)isoxazol-5-yl)-3-methylbutanoyl)-N-((S)-1-(4-(4-methylthiazol-5-yl)phenyl)ethyl)pyrrolidine-2-carboxamide]	A (“A” indicates maximum degradation ≥ 75%)
> 10 nM	> 75%	> 100 nM	Cc1ncsc1-c1ccc([C@H](C)NC(=O)[C@@H]2C[C@@H](O)CN2C(=O)[C@@H](c2cc(OCCN(C)Cc3ccc(Cc4cc5cc(-c6ccccc6O)nnc5[nH]4)cc3)no2)C(C)C)cc1 (racemic) [Compound 284]	A (“A” indicates maximum degradation ≥ 75%)
> 100 nM	> 50%	> 100 nM	Cc1ncsc1-c1ccc([C@H](C)NC(=O)[C@@H]2C[C@@H](O)CN2C(=O)[C@@H](c2cc(OCCN3CCC(F)(c4cc5cc(-c6ccccc6O)nnc5[nH]4)CC3)no2)C(C)C)cc1 (racemic) [Compound 285, (2S,4R)-1-((R)-2-(3-(2-(4-fluoro-4-(3-(2-hydroxyphenyl)-7H-pyrrolo[2,3-c]pyridazin-6-yl)piperidin-1-yl)ethoxy)isoxazol-5-yl)-3-methylbutanoyl)-4-hydroxy-N-((S)-1-(4-(4-methylthiazol-5-yl)phenyl)ethyl)pyrrolidine-2-carboxamide]	A (“A” indicates maximum degradation ≥ 75%)
> 10 nM	< 50%		Cc1ncsc1-c1ccc([C@H](C)NC(=O)[C@@H]2C[C@@H](O)CN2C(=O)[C@@H](c2cc(OCCN3CCCC(c4cc5cc(-c6ccccc6O)nnc5[nH]4)C3)no2)C(C)C)cc1 (mixture of isomers) [Compound 286, (2S,4R)-4-hydroxy-1-((2R)-2-(3-(2-(3-(3-(2-hydroxyphenyl)-7H-pyrrolo[2,3-c]pyridazin-6-yl)piperidin-1-yl)ethoxy)isoxazol-5-yl)-3-methylbutanoyl)-N-((S)-1-(4-(4-methylthiazol-5-yl)phenyl)ethyl)pyrrolidine-2-carboxamide]	A (“A” indicates maximum degradation ≥ 75%)
> 10 nM	< 50%		Cc1ncsc1-c1ccc([C@H](C)NC(=O)[C@@H]2C[C@@H](O)CN2C(=O)[C@@H](c2cc(OCCN3CC(C(C)(C)c4cc5cc(-c6ccccc6O)nnc5[nH]4)C3)no2)C(C)C)cc1 (racemic) [Compound 289, (2S,4R)-4-hydroxy-1-((R)-2-(3-(2-(3-(2-(3-(2-hydroxyphenyl)-7H-pyrrolo[2,3-c]pyridazin-6-yl)propan-2-yl)azetidin-1-yl)ethoxy)isoxazol-5-yl)-3-methylbutanoyl)-N-((S)-1-(4-(4-methylthiazol-5-yl)phenyl)ethyl)pyrrolidine-2-carboxamide]	A (“A” indicates maximum degradation ≥ 75%)
> 100 nM	> 50%	> 1000 nM	Cc1ncsc1-c1ccc(CNC(=O)[C@@H]2C[C@@H](O)CN2C(=O)[C@@H](NC(=O)CCN(C)C23CC(c4cc5cc(-c6ccccc6O)nnc5[nH]4)(C2)C3)C(C)(C)C)cc1 (racemic) [Compound 293, (2S,4R)-4-hydroxy-1-[(2S)-2-[3-([3-[3-(2-hydroxyphenyl)-7H-pyrrolo[2,3-c]pyridazin-6-yl]bicyclo[1.1.1]pentan-1-yl](methyl)amino)propanamido]-3,3-dimethylbutanoyl]-N-[[4-(4-methyl-1,3-thiazol-5-yl)phenyl]methyl]pyrrolidine-2-carboxamide]	A (“A” indicates maximum degradation ≥ 75%)
> 100 nM	< 50%		Cc1ncsc1-c1ccc([C@H](C)NC(=O)[C@@H]2C[C@@H](O)CN2C(=O)[C@@H](c2cc(OCCN3CC(Cc4cc5cc(-c6ccccc6O)nnc5[nH]4)C3)no2)C(C)C)cc1 (racemic) [Compound 294, (2S,4R)-4-hydroxy-1-((R)-2-(3-(2-(3-((3-(2-hydroxyphenyl)-7H-pyrrolo[2,3-c]pyridazin-6-yl)methyl)azetidin-1-yl)ethoxy)isoxazol-5-yl)-3-methylbutanoyl)-N-((S)-1-(4-(4-methylthiazol-5-yl)phenyl)ethyl)pyrrolidine-2-carboxamide]	A (“A” indicates maximum degradation ≥ 75%)

The remaining lines, values behind:

Structure (SMILES)	DC50 (HiBit-BRM fusion protein)	Dmax [1]	DC50 [1]	BRM HiBit Degradation Maximum (%) (HiBit-BRM fusion protein)
Cc1ncsc1-c1ccc([C@H](C)NC(=O)[C@@H]2C[C@@H](O)CN2C(=O)[C@@H](c2cc(OCCN3CCC(c4c[nH]c5nnc(-c6ccccc6O)cc45)CC3)no2)C(C)C)cc1 (racemic) [Compound 282, (2S,4R)-4-hydroxy-1-((R)-2-(3-(2-(4-(3-(2-hydroxyphenyl)-7H-pyrrolo[2,3-c]pyridazin-5-yl)piperidin-1-yl)ethoxy)isoxazol-5-yl)-3-methylbutanoyl)-N-((S)-1-(4-(4-methylthiazol-5-yl)phenyl)ethyl)pyrrolidine-2-carboxamide]	> 10 nM	< 50%		A (“A” indicates maximum degradation ≥ 75%)
Cc1ncsc1-c1ccc([C@H](C)NC(=O)[C@@H]2C[C@@H](O)CN2C(=O)[C@@H](c2cc(OCCN3CCC[C@@H](c4c[nH]c5nnc(-c6ccccc6O)cc45)C3)no2)C(C)C)cc1 (racemic) [Compound 283, (2S,4R)-4-hydroxy-1-((R)-2-(3-(2-((S)-3-(3-(2-hydroxyphenyl)-7H-pyrrolo[2,3-c]pyridazin-5-yl)piperidin-1-yl)ethoxy)isoxazol-5-yl)-3-methylbutanoyl)-N-((S)-1-(4-(4-methylthiazol-5-yl)phenyl)ethyl)pyrrolidine-2-carboxamide]	> 10 nM	< 50%		B (“B” indicates maximum degradation ≥ 50%)
Cc1ncsc1-c1ccc([C@H](C)NC(=O)[C@@H]2C[C@@H](O)CN2C(=O)[C@@H](c2cc(OCCN3CC(c4cc5cc(-c6cc(F)cc(Cl)c6O)nnc5[nH]4)C3)no2)C(C)C)cc1 (racemic) [Compound 287, (2S,4R)-1-((R)-2-(3-(2-(3-(3-(3-chloro-5-fluoro-2-hydroxyphenyl)-7H-pyrrolo[2,3-c]pyridazin-6-yl)azetidin-1-yl)ethoxy)isoxazol-5-yl)-3-methylbutanoyl)-4-hydroxy-N-((S)-1-(4-(4-methylthiazol-5-yl)phenyl)ethyl)pyrrolidine-2-carboxamide]	> 100 nM	< 50%		B (“B” indicates maximum degradation ≥ 50%)
Cc1ncsc1-c1ccc([C@H](C)NC(=O)[C@@H]2C[C@@H](O)CN2C(=O)[C@@H](c2cc(OCCN3CC(c4cc5cc(-c6cc(F)ccc6O)nnc5[nH]4)C3)no2)C(C)C)cc1 (racemic) [Compound 288, (2S,4R)-1-((R)-2-(3-(2-(3-(3-(5-fluoro-2-hydroxyphenyl)-7H-pyrrolo[2,3-c]pyridazin-6-yl)azetidin-1-yl)ethoxy)isoxazol-5-yl)-3-methylbutanoyl)-4-hydroxy-N-((S)-1-(4-(4-methylthiazol-5-yl)phenyl)ethyl)pyrrolidine-2-carboxamide]	> 100 nM	< 50%		A (“A” indicates maximum degradation ≥ 75%)
Cc1ncsc1-c1ccc([C@H](C)NC(=O)[C@@H]2C[C@@H](O)CN2C(=O)[C@@H](c2cc(OCCN3CCC4(CC3)CC(c3cc5cc(-c6ccccc6O)nnc5[nH]3)C4)no2)C(C)C)cc1 (racemic) [Compound 290, (2S,4R)-4-hydroxy-1-((R)-2-(3-(2-(2-(3-(2-hydroxyphenyl)-7H-pyrrolo[2,3-c]pyridazin-6-yl)-7-azaspiro[3.5]nonan-7-yl)ethoxy)isoxazol-5-yl)-3-methylbutanoyl)-N-((S)-1-(4-(4-methylthiazol-5-yl)phenyl)ethyl)pyrrolidine-2-carboxamide]	> 10 nM	> 50%	> 100 nM	A (“A” indicates maximum degradation ≥ 75%)
Cc1ncsc1-c1ccc([C@H](C)NC(=O)[C@@H]2C[C@@H](O)CN2C(=O)[C@@H](c2cc(OCCN3CCC[C@H](c4c[nH]c5nnc(-c6ccccc6O)cc45)C3)no2)C(C)C)cc1 (racemic) [Compound 291, (2S,4R)-4-hydroxy-1-((R)-2-(3-(2-((R)-3-(3-(2-hydroxyphenyl)-7H-pyrrolo[2,3-c]pyridazin-5-yl)piperidin-1-yl)ethoxy)isoxazol-5-yl)-3-methylbutanoyl)-N-((S)-1-(4-(4-methylthiazol-5-yl)phenyl)ethyl)pyrrolidine-2-carboxamide]	> 10 nM	< 50%		B (“B” indicates maximum degradation ≥ 50%)
Cc1ncsc1-c1ccc([C@H](C)NC(=O)[C@@H]2C[C@@H](O)CN2C(=O)[C@@H](c2cc(OCCN3CC[C@H](c4c[nH]c5nnc(-c6ccccc6O)cc45)C3)no2)C(C)C)cc1 (racemic) [Compound 292, (2S,4R)-4-hydroxy-1-((R)-2-(3-(2-((R)-3-(3-(2-hydroxyphenyl)-7H-pyrrolo[2,3-c]pyridazin-5-yl)pyrrolidin-1-yl)ethoxy)isoxazol-5-yl)-3-methylbutanoyl)-N-((S)-1-(4-(4-methylthiazol-5-yl)phenyl)ethyl)pyrrolidine-2-carboxamide]	> 100 nM	< 50%		B (“B” indicates maximum degradation ≥ 50%)
